Measured values taken from patent US11000516B2 (priority 2015, dated 2021).

Legend:
[1] = test system: EDEN2 (clinical DENV2 isolate); assay: Antiviral effect in BHK-21 cells, plaque assay of supernatant 48 h pi; assay type: cell-based; settings: Dengue virus, DENV2, BHK-21
Procedure: (§1) Cells were infected with DENV strains for 1 hour at 37° C. and washed once with culture media. […] The supernatants were subjected to standard plaque assay and the EC50 values were determined using the GraphPad Prism software.
(§2) NITD008, an adenosine analog inhibitor of DENV polymerase (Yin et al., 2009) was used as a positive control.

[2] = test system: EDEN1 (clinical DENV1 isolate); assay: as above; assay type: cell-based
Procedure: as §1, §2

[3] = human, cited from earlier work
[4] = test system: DENV2 strain #031; assay: CELADEN clinical strain in HuH-7 cells, single concentration, virus titer by plaque assay; assay type: cell-based; settings: strain #031, celgosivir 3 mM, 48 hours pi
Procedure: (§3) EDEN1, EDEN2 and S221 were used as control virus strains. The MOI of each strain was indicated in supplementary FIG. 2. After 48 hours pi, virus titer in the supernatants was determined by standard plaque assay using BHK-21 cells. The percentages of virus titer were calculated based on virus infection control of each strain. Error bars indicate standard deviations from duplicate experiments. (B and C) Mice were inoculated i.v. with DENV2 strains, #031 (2×10^7 pfu), #013 (1×10^7 pfu) or #036 (2×10^7 pfu). […] Average viral copy numbers on day 1-2 were measured using mixed serum of each group. Viral copy number on day 3 was measured individually and the graphs show the average results with standard deviations. A P value less than 0.05 was considered significant (*P<0.05). […] Viral copy number on day 3-6 was measured individually and shown in the graphs as the average results with standard deviations. The VLR from day 3 to day 6 was also shown as the mean value and standard deviations. The number of mice per group is 6.
(§4) Total 16 clinical DENV virus were recovered from serum of CELADEN trial patients with 8 of either DENV1 or DENV2 infection. […] The MOI was varied among strains to obtain similar levels of virus titer (within 10-fold difference). The MOI was 0.01 (EDEN1), 0.1 (#005, #048, #004, #033, #010, #013, #022, #036), 0.2 (#016, #017, #011, EDEN2, S221), 0.5 (#049, #038), 1 (#028, #031) and 2 (#025). After 48 hours post-infection, virus titer in the supernatants was determined by standard plaque assay using BHK-21 cells. Error bars indicate standard deviations from duplicate experiments.
(§5) Since infection levels in HuH-7 cells are different among the strains, the MOI of each strain was varied to obtain similar levels of virus titer in the supernatant (FIG. 8).

[5] = test system: DENV2 strain #013; assay: as above; assay type: cell-based; settings: strain #013, celgosivir 3 mM, 48 hours pi
Procedure: as §3, §4, §5

[6] = test system: DENV2 strain #036; assay: as above; assay type: cell-based; settings: strain #036, celgosivir 3 mM, 48 hours pi
Procedure: as §3, §4, §5

[7] = test system: EDEN2; assay: Lethal ADE infection model in AG129 mice (4G2 Ab pre-injection); assay type: in vivo
Procedure: (§6) AG129 mice were inoculated i.v. with EDEN1 (7×10^7 pfu), EDEN2 (1×10^8 pfu) or S221 (2×10^4 pfu) for non-lethal infection. For the ADE infection (lethal), mice were pre-injected i.p. with 50 μg (for EDEN1 and EDEN2) or 10 μg (for S221) 4G2 Ab one day prior to infection. (A) Mouse survival rate was monitored by day 10 pi. (B) Blood samples were collected on days 1-8 pi and mixed serum from each group were subjected to real-time RT-PCR to obtain the average viral genome copy numbers. (C) Serum levels of TNFα and IL-6 were measured by ELISA assay. The numbers of mice per group are 6 (EDEN1) or 5 (EDEN2 and S221).
(§7) AG129 mice were pre-injected i.p. with 50 μg (for EDEN1 and EDEN2) or 10 μg (for S221) 4G2 Ab followed by next day inoculation i.v. with EDEN1 (7×10^7 pfu), EDEN2 (1×10^8 pfu) or S221 (2×10^4 pfu). […] (A) Mouse survival rate was monitored by day 10 pi. (B) Blood samples were collected on day 1-4 pi and mixed serum from each group were subjected to real-time RT PCR to obtain the average viral genome copy numbers (left panels). […] A P value less than 0.05 was considered significant (*P<0.05). The number of mice per group is 5.
as §7, with “with” for “with 50 μg (for EDEN1 and EDEN2) or 10 μg (for S221)”, “with EDEN1,” for “with EDEN1 (7×10^7 pfu),”, “EDEN2” for “EDEN2 (1×10^8 pfu)”, “S221 as described above.” for “S221 (2×10^4 pfu).”, “on days” for “on day”, “is 6.” for “is 5.”
(§8) AG129 mouse models of clinical DENV strains, EDEN1 and EDEN2, in addition to mouse-adapted S221 strain were developed. To increase infection level in mice, high virus titer of EDEN1 (7×10^7 pfu) and EDEN2 (1×10^8 pfu) were inoculated intravenously (iv) into AG129 mice.

[8] = test system: S221; assay: as above; assay type: in vivo
Procedure: as §6, §7
as §7, with “with” for “with 50 μg (for EDEN1 and EDEN2) or 10 μg (for S221)”, “with EDEN1,” for “with EDEN1 (7×10^7 pfu),”, “EDEN2” for “EDEN2 (1×10^8 pfu)”, “S221 as described above.” for “S221 (2×10^4 pfu).”, “on days” for “on day”, “is 6.” for “is 5.”
as §8

[9] = test system: EDEN1; assay: as above; assay type: in vivo
Procedure: as §6, §7
as §7, with “with” for “with 50 μg (for EDEN1 and EDEN2) or 10 μg (for S221)”, “with EDEN1,” for “with EDEN1 (7×10^7 pfu),”, “EDEN2” for “EDEN2 (1×10^8 pfu)”, “S221 as described above.” for “S221 (2×10^4 pfu).”, “on days” for “on day”, “is 6.” for “is 5.”
as §8

[10] = test system: EDEN2 (clinical DENV2 isolate); assay: Antiviral effect in HuH-7 cells, plaque assay of supernatant 48 h pi; assay type: cell-based
Procedure: as §1, §2

[11] = test system: S221 (mouse-adapted DENV2 strain); assay: as above; assay type: cell-based
Procedure: as §1, §2

[12] = test system: EDEN1 (clinical DENV1 isolate); assay: as above; assay type: cell-based
Procedure: as §1, §2

`CCCC(=O)O[C@H]1CN2CC[C@H](O)[C@@H]2[C@@H](O)[C@@H]1O` [celgosivir] showed an EC50 [1] of 0.061 µM, an EC50 ([2]; BHK-21, BHK-21, EDEN1, MOI 0.01) of 0.066 µM and an EC50 ([2]; BHK-21, BHK-21, EDEN1, MOI 0.3) of 0.105 µM. The adverse event profile ([3]; CELADEN study regimen) was “higher incidence of GI effects, but not increased severity”, the “maximum daily dose, total dose” value ([3]; in theory) was at most 600 mg and the “maximum dose as a single dose” value ([3]; in theory) was at most 400 mg. For the same compound, the “reduction in virus titer in the supernatant of HuH-7 cells” value (from here on “reduction in virus titer”) [4] was 52%, the “reduction in virus titer” value [5] was 67% and the “reduction in virus titer” value [6] was 70%. For the same compound, the “protection from death (survival)” value ([7]; EDEN2, 10 mg/kg BID from time of infection) was 100%, the “viremia reduction versus VC on day 3” value ([7]; EDEN2, lethal ADE model, 10 mg/kg BID from day 0) was 3.7 fold and the “lower viremia level than vehicle control on day 3 pi” value ([7]; EDEN2, lethal ADE model, 50 mg/kg BID from day 0) was 16.5 fold. For the same compound, the “protection from death (survival)” value ([8]; S221, 10 mg/kg BID from time of infection) was “could not protect mice from death”, the “protection from lethal infection (survival)” value ([8]; S221, 50 mg/kg BID orally from time of infection) was “completely protected mice from lethal infection” and the “viremia reduction versus VC on day 3” value ([8]; S221, lethal ADE model, 10 mg/kg BID from day 0) was 1.4 fold. The “lower viremia level than vehicle control on day 3 pi” value ([8]; S221, lethal ADE model, 50 mg/kg BID from day 0) was 2.4 fold, the “protection from death (survival)” value ([9]; EDEN1, 10 mg/kg BID from time of infection) was “could not protect mice from death” and the “viremia reduction versus VC on day 3” value ([9]; EDEN1, lethal ADE model, 10 mg/kg BID from day 0) was 1.8 fold. The “lower viremia level than vehicle control on day 3 pi” value ([9]; EDEN1, lethal ADE model, 50 mg/kg BID from day 0) was 4.3 fold, the EC50 ([10]; Dengue virus, DENV2, Huh-7, HuH-7, EDEN2, MOI 0.3) was 0.82 µM and the EC50 ([10]; HuH-7, EDEN2, MOI 0.3) was 0.824 µM. It also gave an EC50 ([11]; Dengue virus, DENV2, Huh-7, HuH-7, S221, MOI 0.3) of 5.1 µM, an EC50 ([11]; HuH-7, S221, MOI 0.3) of 5.09 µM and an EC50 ([12]; HuH-7, EDEN1, MOI 0.01) of 5.96 µM. It also gave an EC50 ([12]; HuH-7, EDEN1, MOI 0.3) of 17.4 µM, an EC50 ([12]; Huh-7, HuH-7, EDEN1, MOI 0.01) of 6 µM and an EC50 ([12]; Huh-7, HuH-7, EDEN1, MOI 0.3) of 17.4 µM.
